# Results from PubChem BioAssay (NCI).
#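 Where inhibition never reached the appropriate level, the endpoint shown equals the highest concentration tested. Otherwise, values were interpolated linearly from a five-concentration, 48-hour dose response in 96-well plates. GI50 is the concentration that inhibits growth by half. TGI marks complete inhibition of growth.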
# What was measured:
# Experiment in all cases: DTP human tumour cell line panel, 48 h
# [1] = test system: 786-0 renal
# [2] = test system: A549 NSCLC
# [3] = test system: ACHN renal
# [4] = test system: BT-549 breast
# [5] = test system: CAKI-1 renal
# [6] = test system: CCRF-CEM leukemia
# [7] = test system: COLO 205 colon
# [8] = test system: DU-145 prostate
# [9] = test system: EKVX NSCLC
# [10] = test system: HCC-2998 colon
# [11] = test system: HCT-116 colon
# [12] = test system: HCT-15 colon
# [13] = test system: HL-60(TB) leukemia
# [14] = test system: HOP-62 NSCLC
# [15] = test system: HOP-92 NSCLC
# [16] = test system: HS 578T breast
# [17] = test system: HT29 colon
# [18] = test system: IGROV1 ovarian
# [19] = test system: K-562 leukemia
# [20] = test system: KM12 colon
# [21] = test system: LOX IMVI melanoma
# [22] = test system: M14 melanoma
# [23] = test system: MALME-3M melanoma
# [24] = test system: MCF7 breast
# [25] = test system: MDA-MB-231 breast
# [26] = test system: MDA-MB-435
# [27] = test system: MOLT-4 leukemia
# [28] = test system: NCI-H226 lung
# [29] = test system: NCI-H23 lung
# [30] = test system: NCI-H460 lung
# [31] = test system: NCI-H522 lung
# [32] = test system: NCI/ADR-RES ovarian
# [33] = test system: OVCAR-3 ovarian
# [34] = test system: OVCAR-4 ovarian
# [35] = test system: OVCAR-5 ovarian
# [36] = test system: OVCAR-8 ovarian
# [37] = test system: PC-3 prostate
# [38] = test system: RPMI-8226 leukemia
# [39] = test system: RXF 393 renal
# [40] = test system: SF-268 CNS
# [41] = test system: SF-295 CNS
# [42] = test system: SF-539 CNS
# [43] = test system: SK-MEL-2 melanoma
# [44] = test system: SK-MEL-28 melanoma
# [45] = test system: SK-MEL-5 melanoma
# [46] = test system: SK-OV-3 ovarian
# [47] = test system: SN12C renal
# [48] = test system: SNB-19 CNS
# [49] = test system: SNB-75 CNS
# [50] = test system: SR leukemia
# [51] = test system: SW-620 colon
# [52] = test system: T-47D breast
# [53] = test system: TK-10 renal
# [54] = test system: U251 CNS
# [55] = test system: UACC-257 melanoma
# [56] = test system: UACC-62 melanoma
# [57] = test system: UO-31 renal
smiles,measurement,setting,value
CSc1nc2ccc(C)cc2cc1/C=C1/C=C(c2ccccc2)NC1=O,GI50,[1],2 µM
same,TGI,[1],5.89 µM
same,GI50,[2],3.54 µM
same,TGI,[2],30.7 µM
same,GI50,[3],1.04 µM
same,TGI,[3],5.54 µM
same,GI50,[4],3.94 µM
same,TGI,[4],22.9 µM
same,GI50,[5],1.21 µM
same,TGI,[5],10.9 µM
same,GI50,[6],26.4 µM
same,TGI,[6],> 100 µM
same,GI50,[7],5.9 µM
same,TGI,[7],> 100 µM
same,GI50,[8],6.72 µM
same,TGI,[8],96.1 µM
same,GI50,[9],13.1 µM
same,TGI,[9],> 100 µM
same,GI50,[10],> 100 µM
same,TGI,[10],> 100 µM
same,GI50,[11],0.731 µM
same,TGI,[11],4.07 µM
same,GI50,[12],14 µM
same,TGI,[12],> 100 µM
same,GI50,[13],> 100 µM
same,TGI,[13],> 100 µM
same,GI50,[14],2.42 µM
same,TGI,[14],11.7 µM
same,GI50,[15],2.85 µM
same,TGI,[15],13.4 µM
same,GI50,[16],1.92 µM
same,TGI,[16],7.46 µM
same,GI50,[17],3.44 µM
same,TGI,[17],> 100 µM
same,GI50,[18],2.71 µM
same,TGI,[18],24.1 µM
same,GI50,[19],8.83 µM
same,TGI,[19],> 100 µM
same,GI50,[20],3.13 µM
same,TGI,[20],82.9 µM
same,GI50,[21],6.33 µM
same,TGI,[21],33.2 µM
same,GI50,[22],5.42 µM
same,TGI,[22],78 µM
same,GI50,[23],3.08 µM
same,TGI,[23],25.9 µM
same,GI50,[24],12.5 µM
same,TGI,[24],> 100 µM
same,GI50,[25],4.42 µM
same,TGI,[25],36.6 µM
same,GI50,[26],0.718 µM
same,TGI,[26],21 µM
same,GI50,[27],15.5 µM
same,TGI,[27],> 100 µM
same,GI50,[28],7.3 µM
same,TGI,[28],> 100 µM
same,GI50,[29],10 µM
same,TGI,[29],> 100 µM
same,GI50,[30],0.646 µM
same,TGI,[30],10.9 µM
same,GI50,[31],3.53 µM
same,TGI,[31],42.5 µM
same,GI50,[32],3.99 µM
same,TGI,[32],87.5 µM
same,GI50,[33],1.78 µM
same,TGI,[33],15.9 µM
same,GI50,[34],0.296 µM
same,TGI,[34],1.03 µM
same,GI50,[35],19.3 µM
same,TGI,[35],> 100 µM
same,GI50,[36],3.6 µM
same,TGI,[36],23.2 µM
same,GI50,[37],5.32 µM
same,TGI,[37],> 100 µM
same,GI50,[38],8.9 µM
same,TGI,[38],> 100 µM
same,GI50,[39],3.06 µM
same,GI50,[40],3.16 µM
same,TGI,[40],48 µM
same,GI50,[41],1.44 µM
same,TGI,[41],15 µM
same,GI50,[42],2.35 µM
same,TGI,[42],9.66 µM
same,GI50,[43],6.31 µM
same,TGI,[43],30.4 µM
same,GI50,[44],23.1 µM
same,TGI,[44],> 100 µM
same,GI50,[45],21.3 µM
same,TGI,[45],> 100 µM
same,GI50,[46],4.83 µM
same,TGI,[46],> 100 µM
same,GI50,[47],4.53 µM
same,TGI,[47],32.3 µM
same,GI50,[48],4.6 µM
same,TGI,[48],33.5 µM
same,GI50,[49],2.81 µM
same,TGI,[49],14.8 µM
same,GI50,[50],0.598 µM
same,TGI,[50],> 100 µM
same,GI50,[51],2.62 µM
same,TGI,[51],92.1 µM
same,GI50,[52],1.66 µM
same,TGI,[52],24.5 µM
same,GI50,[53],2.63 µM
same,TGI,[53],8.46 µM
same,GI50,[54],0.602 µM
same,TGI,[54],3.68 µM
same,GI50,[55],94.6 µM
same,TGI,[55],> 100 µM
same,GI50,[56],10.8 µM
same,TGI,[56],48.2 µM
same,GI50,[57],2.58 µM
same,TGI,[57],12.4 µM
C=C(C)[C@@H]1CC[C@]2(C(=O)OCCOCCOCC[P+](c3ccccc3)(c3ccccc3)c3ccccc3)CC[C@]3(C)[C@H](CC[C@@H]4[C@@]5(C)CC[C@H](C)C(C)(C)[C@@H]5CC[C@]43C)[C@@H]12,GI50,[14],0.0384 µM
same,TGI,[14],0.614 µM
same,GI50,[30],0.0383 µM
same,TGI,[30],> 100 µM
same,GI50,[36],0.0431 µM
same,TGI,[36],> 100 µM
